Series [1] concerns skin cancer (tumours) on skin. The series is described as follows: Imaging fluorescence spectroscopy of skin after topical ALA application. The series is classed as in vivo, human. The settings on record: exciting light about 0,5 mW/cm^2, exposing time 2 s. The method, then:
(§1) The method according to the invention is carried out in the way that first a water-in-oil emulsion or an oil-in-water emulsion is prepared form a compound called delta amino levulinic acid (ALA) having an ALA concentration of 5-25%. […] This agent which has the formula I is normally produced in the body in the […] and is a building stone for the haemoglobin. [drawing 1]

Series [2] can be described thus: Solubility of ALA in water. The series is classed as physicochemical. The settings on record: ALA in the form of powder. The method, then:
as §1

For `NCC(=O)CCC(=O)O` [ALA, delta amino levulinic acid], in series [1] (FIG. 1, back of a person), the “average fluorescence level within area B (ALA-treated skin without detected tumours) relative to area A (untreated skin, skin auto fluorescence)” value is reported as 1,9 × and the “fluorescence intensity of white-contoured areas (tumours, areas 1-4) relative to skin auto fluorescence” value was 2,75 ×. For the same compound, in series [1] (FIG. 2, breast of a person), the “average fluorescence level in area B (ALA-treated skin without detected tumours) relative to area A (untreated skin, skin auto fluorescence)” value was 2,0 × and the “fluorescence intensity of white-contoured areas (tumour, area 7) relative to skin auto fluorescence” value was > 2,75 ×. Besides, the solubility in water result in series [2] was “easily solved in water”.

(Values after patent publication US6421455B1, “Method for detecting cancer on skin of humans and mammals and arrangement for performing the method” (Medeikonos AB, priority 1996, dated 2002).)
